From patent US9113629B2, “4-amino-6-(4-substituted-phenyl)-picolinates and 6-amino-2-(4-substituted-phenyl)-pyrimidine-4-carboxylates and their use as herbicides” (DOW AGROSCIENCES LLC, priority 2013, dated 2015)
Read-outs that look alike come from different tables or passages of the source.

Tested on: test plant species in Direct Seeded Rice
Assay: Postemergence herbicidal activity in direct seeded rice (Table 13)
Format: in vivo
Settings: for GR50 BRAPP / GR80 BRAPP / GR50 CYPSS / GR80 CYPSS / GR50 ECHSS / GR80 ECHSS / GR50 LEFSS / GR80 LEFSS / GR20 ORYSS / GR50 SCPJU / GR80 SCPJU / GR50 SEBEX / GR80 SEBEX: probit analysis; for GR20 ORYSS: ORYSS: Oryza sativa (crop); for pest or weed control at 35 g/ha / pest or weed control at 70 g/ha: post-emergence, 504 h; for pest or weed control at 35 g/ha: 35 g ai/ha; for pest or weed control at 70 g/ha: 70 g ai/ha
From the text: Seeds or nutlets of the desired test plant species were planted in a soil matrix prepared by mixing a loam soil (43 percent silt, 19 percent clay, and 38 percent sand, with a pH of about 8.1 and an organic matter content of about 1.5 percent) and river sand in an 80 to 20 ratio. The soil matrix was contained in plastic pots with a surface area of 139.7 cm^2. When required to ensure good germination and healthy plants, a fungicide treatment and/or other chemical or physical treatment was applied. The plants were grown for 10-17 d in a greenhouse with an approximate 14-h photoperiod which was maintained at about 29° C. during the day and 26° C. during the night. Nutrients and water were added on a regular basis and supplemental lighting was provided with overhead metal halide 1000-Watt lamps as necessary. The plants were employed for testing when they reached the second or third true leaf stage. A weighed amount, determined by the highest rate to be tested, of each test compound was placed in 25 mL glass vials and dissolved in a volume of 97:3 v/v acetone-DMSO to obtain 12× stock solutions. […] The concentrated stock solutions were added to the spray solutions so that the final acetone and DMSO concentrations were 16.2% and 0.5%, respectively. Spray solutions were diluted to the appropriate final concentrations with the addition of 10 mL of an aqueous mixture of 1.5% (v/v) Agri-dex crop oil concentrate. […] Compound requirements are based upon a 12 mL application volume at a rate of 187 L/ha. Formulated compounds were applied to the plant material with an overhead Mandel track sprayer equipped with […] nozzles calibrated to deliver 187 L/ha over an application area of 0.503 square meters (m^2) at a spray height of 18 inches (43 cm) above average plant canopy height. Control plants were sprayed in the same manner with the solvent blank. The treated plants and control plants were placed in a greenhouse as described above and watered by sub-irrigation to prevent wash-off of the test compounds. After 20-22 days, the condition of the test plants, compared with that of the untreated plants, was determined visually and scored on a scale of 0 to 100 percent where 0 corresponds to no injury and 100 corresponds to complete kill. By applying the well-accepted probit analysis as described by J. Berkson in Journal of the American Statistical Society, 48, 565 (1953) and by D. Finney in “Probit Analysis” Cambridge University Press (1952), the above data can be used to calculate GR20, GR50, GR80 and GR90 values, which are defined as growth reduction factors that correspond to the effective dose of herbicide required to kill or control 20 percent, 50 percent, 80 percent or 90 percent, respectively, of a target plant.

[1] = BRAPP: broadleaf signalgrass, Brachiaria platyphylla
[2] = CYPSS: sedge (Cyperus difformis, esculentus, iria)
[3] = ECHSS: barnyardgrass (Echinochloa crus-galli), junglerice (Echinochloa colonum)
[4] = LEFSS: sprangletop (Leptochloa chinensis, Leptochloa dubia)
[5] = SCPJU: Japanese bulrush, Scirpus juncoides
[6] = SEBEX: hemp sesbania, Sesbania exaltata
[7] = BRAPP: broadleaf signalgrass, Brachiaria platyphylla, read-out: Visual Growth Reduction (%) 21 Days After Application BRAPP
[8] = CYPSS: sedge (Cyperus difformis, esculentus, iria), read-out: Visual Growth Reduction (%) 21 Days After Application CYPSS
[9] = ECHSS: barnyardgrass (Echinochloa crus-galli), junglerice (Echinochloa colonum), read-out: Visual Growth Reduction (%) 21 Days After Application ECHSS
[10] = LEFSS: sprangletop (Leptochloa chinensis, Leptochloa dubia), read-out: Visual Growth Reduction (%) 21 Days After Application LEFSS
[11] = ORYSS: Oryza sativa, read-out: Visual Growth Reduction (%) 21 Days After Application ORYSS
[12] = SCPJU: Japanese bulrush, Scirpus juncoides, read-out: Visual Growth Reduction (%) 21 Days After Application SCPJU
[13] = SEBEX: hemp sesbania, Sesbania exaltata, read-out: Visual Growth Reduction (%) 21 Days After Application SEBEX

SMILES	GR50 BRAPP [1] [g ai/ha]	GR80 BRAPP [1] [g ai/ha]	GR50 CYPSS [2] [g ai/ha]	GR80 CYPSS [2] [g ai/ha]	GR50 ECHSS [3] [g ai/ha]	GR80 ECHSS [3] [g ai/ha]	GR50 LEFSS [4] [g ai/ha]	GR80 LEFSS [4] [g ai/ha]	GR20 ORYSS [g ai/ha]	GR50 SCPJU [5] [g ai/ha]	GR80 SCPJU [5] [g ai/ha]	GR50 SEBEX [6] [g ai/ha]	GR80 SEBEX [6] [g ai/ha]	pest or weed control at 35 g/ha [7] [%]	pest or weed control at 70 g/ha [7] [%]	pest or weed control at 35 g/ha [8] [%]	pest or weed control at 70 g/ha [8] [%]	pest or weed control at 35 g/ha [9] [%]	pest or weed control at 70 g/ha [9] [%]	pest or weed control at 35 g/ha [10] [%]	other results
COC(=O)c1nc(-c2ccc(I)cc2)c(Cl)c(N)c1Cl [Compound 96]	19	58	3	6	29	84	27	58	130	1	1	1	1	60 to 74	85 to 94	95 to 100	95 to 100	45 to 59	85 to 94	85 to 94	pest or weed control at 70 g/ha [10]: 75 to 84%; pest or weed control at 35 g/ha [11]: 0 to 29%; pest or weed control at 70 g/ha [11]: 0 to 29%; pest or weed control at 35 g/ha [12]: 95 to 100%; pest or weed control at 70 g/ha [12]: 95 to 100%; pest or weed control at 35 g/ha [13]: 95 to 100%; pest or weed control at 70 g/ha [13]: 95 to 100%
Nc1c(Cl)c(C(=O)O)nc(-c2ccc(I)cc2)c1Cl [Compound 173]	8	26	2	4	12	33	24	47	16	1	1	1	1	75 to 84	95 to 100	95 to 100	95 to 100	75 to 84	95 to 100	45 to 59	pest or weed control at 70 g/ha [10]: 95 to 100%; pest or weed control at 35 g/ha [11]: 45 to 59%; pest or weed control at 70 g/ha [11]: 60 to 74%; pest or weed control at 35 g/ha [12]: 95 to 100%; pest or weed control at 70 g/ha [12]: 95 to 100%; pest or weed control at 35 g/ha [13]: 95 to 100%; pest or weed control at 70 g/ha [13]: 95 to 100%
Nc1c(Cl)c(C(=O)O)nc(-c2ccc(Br)cc2)c1Cl [Compound 125]	46	>70	4	10	40	>70	43	>70	0	1	1	1	1	45 to 59	60 to 74	95 to 100	95 to 100	45 to 59	60 to 74	45 to 59	pest or weed control at 70 g/ha [10]: 60 to 74%; pest or weed control at 35 g/ha [11]: 0 to 29%; pest or weed control at 70 g/ha [11]: 0 to 29%; pest or weed control at 35 g/ha [12]: 95 to 100%; pest or weed control at 70 g/ha [12]: 95 to 100%; pest or weed control at 35 g/ha [13]: 95 to 100%; pest or weed control at 70 g/ha [13]: 95 to 100%
